Assay results from the supplement of paper PMC10307832.

Columns and labels:
Experiment in all cases: relative viability (nuclei count vs DMSO), 5 days (fraction); higher = more cells survive
AT9283 + Olaparib = compound: O=C(Nc1c[nH]nc1-c1nc2ccc(CN3CCOCC3)cc2[nH]1)NC1CC1 [AT9283] + O=C(c1cc(Cc2n[nH]c(=O)c3ccccc23)ccc1F)N1CCN(C(=O)C2CC2)CC1 [Olaparib] (partner 8 µM)
Summary of the method: (§1)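 Each reported value is a median over duplicate plates. It expresses relative viability: treated-well nuclei count divided by vehicle-well nuclei count. Lung cancer cell lines in 1536-well plates were dosed by pin tool a day after seeding, alone with one drug or with a fixed anchor-drug dose plus five library-drug doses (not always all listed) in √10 steps, and nuclei were counted after 5 days.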

Erlotinib + OSI-027 = compound: C#Cc1cccc(Nc2ncnc3cc(OCCOC)c(OCCOC)cc23)c1 [Erlotinib] + COc1cccc2cc(-c3nc([C@H]4CC[C@H](C(=O)O)CC4)n4ncnc(N)c34)[nH]c12 [OSI-027] (partner 0.5 µM)
Summary of the method: as §1

AT9283 + Foretinib = compound: O=C(Nc1c[nH]nc1-c1nc2ccc(CN3CCOCC3)cc2[nH]1)NC1CC1 [AT9283] + COc1cc2c(Oc3ccc(NC(=O)C4(C(=O)Nc5ccc(F)cc5)CC4)cc3F)ccnc2cc1OCCCN1CCOCC1 [Foretinib] (partner 0.25 µM)
Summary of the method: as §1

Erlotinib + Vorinostat = compound: C#Cc1cccc(Nc2ncnc3cc(OCCOC)c(OCCOC)cc23)c1 [Erlotinib] + O=C(CCCCCCC(=O)Nc1ccccc1)NO [Vorinostat] (partner 1 µM)
Summary of the method: as §1

AT9283 + Pictilisib = compound: O=C(Nc1c[nH]nc1-c1nc2ccc(CN3CCOCC3)cc2[nH]1)NC1CC1 [AT9283] + CS(=O)(=O)N1CCN(Cc2cc3nc(-c4cccc5[nH]ncc45)nc(N4CCOCC4)c3s2)CC1 [Pictilisib] (partner 1 µM)
Summary of the method: as §1

| Cell Line | relative viability (AT9283 + Olaparib; first compound 0.003 µM) | relative viability (AT9283 + Olaparib; first compound 0.03 µM) | relative viability (AT9283 + Olaparib; first compound 0.09487 µM) | relative viability (AT9283 + Olaparib; first compound 0.3 µM) | relative viability (Erlotinib + OSI-027; first compound 0.02 µM) | relative viability (Erlotinib + OSI-027; first compound 0.2 µM) | relative viability (Erlotinib + OSI-027; first compound 0.6325 µM) | relative viability (Erlotinib + OSI-027; first compound 2 µM) | relative viability (AT9283 + Foretinib; first compound 0.003 µM) | relative viability (AT9283 + Foretinib; first compound 0.03 µM) | relative viability (AT9283 + Foretinib; first compound 0.09487 µM) | relative viability (AT9283 + Foretinib; first compound 0.3 µM) | relative viability (Erlotinib + Vorinostat; first compound 0.02 µM) | relative viability (Erlotinib + Vorinostat; first compound 0.2 µM) | relative viability (Erlotinib + Vorinostat; first compound 0.6325 µM) | relative viability (Erlotinib + Vorinostat; first compound 2 µM) | relative viability (AT9283 + Pictilisib; first compound 0.003 µM) | relative viability (AT9283 + Pictilisib; first compound 0.03 µM) | relative viability (AT9283 + Pictilisib; first compound 0.09487 µM) | relative viability (AT9283 + Pictilisib; first compound 0.3 µM) |
| --- | --- | --- | --- | --- | --- | --- | --- | --- | --- | --- | --- | --- | --- | --- | --- | --- | --- | --- | --- | --- |
| NCI-H1915 | 0.266 | 0.228 | 0.17 | 0.143 | 0.651 | 0.713 | 0.679 | 0.55 | 1.04 | 0.995 | 0.451 | 0.256 | 0.536 | 0.529 | 0.508 | 0.485 | 0.854 | 0.95 | 0.293 | 0.178 |
| NCI-H1944 | 0.401 | 0.361 | 0.205 | 0.206 | 0.413 | 0.355 | 0.291 | 0.269 | 0.821 | 0.373 | 0.267 | 0.254 | 0.497 | 0.388 | 0.48 | 0.35 | 0.327 | 0.307 | 0.221 | 0.224 |
| NCI-H1975 | 0.731 | 0.723 | 0.783 | 0.647 | 0.704 | 0.676 | 0.49 | 0.381 | 0.947 | 0.949 | 0.82 | 0.326 | 0.722 | 0.726 | 0.701 | 0.58 | 0.26 | 0.179 | 0.18 | 0.165 |
| NCI-H1993 | 1.07 | 1 | 0.552 | 0.391 | 0.6 | 0.534 | 0.555 | 0.699 | 0.82 | 0.603 | 0.61 | 0.534 | 0.811 | 0.724 | 0.633 | 0.461 | 0.841 | 0.748 | 0.934 | 0.661 |
| NCI-H2009 | 0.716 | 0.636 | 0.458 | 0.0682 | 0.759 | 0.653 | 0.65 | 0.414 | 1.29 | 1.07 | 0.438 | 0.29 | 0.758 | 0.713 | 0.775 | 0.667 | 0.774 | 0.462 | 0.239 | 0.0896 |
| NCI-H2023 | 0.511 | 0.409 | 0.21 | 0.0856 | 0.428 | 0.338 | 0.285 | 0.192 | 0.739 | 0.86 | 0.301 | 0.108 | 0.754 | 0.475 | 0.645 | 0.47 | 0.216 | 0.106 | 0.0878 | 0.111 |
| NCI-H2085 | 0.834 | 0.772 | 0.629 | 0.292 | 0.787 | 0.448 | 0.349 | 0.245 | 1.1 | 0.736 | 0.51 | 0.338 | 0.78 | 0.649 | 0.724 | 0.535 | 0.404 | 0.417 | 0.19 | 0.196 |
| NCI-H2087 | 0.71 | 0.416 | 0.194 | 0.154 | 0.615 | – | 0.533 | 0.384 | 1.03 | 0.388 | 0.195 | 0.132 | 0.778 | 0.788 | 0.765 | 0.434 | 0.677 | 0.413 | 0.21 | 0.208 |
